Entries after “also recorded” stand apart in the source; their conditions may differ.

For experiment [1], the system named is SOD1^D90A ALS motor neurons. Kind of experiment: NF staining of SOD1^D90A ALS iPSC-differentiated motor neurons. The conditions noted are these: for efficacy on increasing number of nerve fibers, gastrodin compared with riluzole / reduction of spherical nerve fiber beads, gastrodin compared with riluzole: comparison of gastrodin and riluzole. It is filed as cell-based, human. Here is the method: (§1) The gastrodin was diluted with dimethyl sulfoxide (DMSO) to 10 mM, added to the motor neurons differentiated at Day 25, Day 35 and Day 45 at a dosage ratio of 1:1,000, and cultured for 72 hours (hrs) for various assays.
A 4-well culture slide with a glass cover placed thereon was coated with 1% Geltrex®, placed at 37° C. for at least 3 to 4 hrs, washed with phosphate buffered saline (PBS) once after removal of the Geltrex®, and soaked in a culture medium until use. The embryoid bodies were dissociated with enzymes or mechanical force into smaller pieces, seeded on the 4-well culture slide, and cultured for 3 days (optionally for a longer period). After the cells adhered and extended outwards to present rosettes with a neural tube-like or a neuronal morphology, the immunofluorescent staining was then performed.
For the immunofluorescent staining, the medium was firstly removed, and then the cells were washed with PBS at room temperature twice. Next, 200 μL of 4% paraformaldehyde was added to the cells, and the mixture was reacted at room temperature for 5 to 15 min to fix the cells. The cells were washed with PBS for 3 times for 5 min each, and 200 μL of 99% methanol or 0.3% Triton® was added. The mixture was incubated for 5 to 15 min at 4° C., and the liquid was removed after permeabilization. The methanol, if used for fixation, was volatilized out. Then, the mixture was washed with PBS for 3 times (each for 5 min), and 200 μL of 5% horse serum was added at room temperature for at least 1 hr for blocking. […] The primary antibody was removed after conjugation for 16 hrs, followed by washing with PBS and Tween® 20 (abbreviated as PBST hereinafter) for 3 times for 5 min each, and a secondary antibody (prepared in PBS at a concentration of 1:500) was added. The secondary antibody was kept in dark for 1 hour at room temperature. After removal of the secondary antibody, the mixture was washed 3 times with PBST for 5 min each.
(§2) Thereafter, the cells were labeled via nuclear staining by adding 200 μL of 4′,6-diamidino-2-phenylindole (DAPI) (1 μg/mL), reacting in dark for 5 to 15 min at room temperature, removing DAPI, washing with PBST twice for 5 min each, removing PBST, adding PBS to maintain the cell moisture, lifting the glass coverslip with a needle tip, reversing the glass coverslip to the side with 50% glycerol or a mounting gel, storing in dark at 4° C., observing with a fluorescence microscope or a confocal microscope and photographing, and subsequently quantifying the numbers of neurofilaments and nerve fiber beads using an OLYMPUS cellSens Dimension Desktop 2.3 software.
In this Example, SOD1^D90A ALS iPSCs-differentiated motor neurons were used for comparing the efficacies of gastrodin and riluzole on improvement of ALS symptoms.

In experiment [2] the test system is patients with ALS. The conditions noted are these: cited from earlier work.
In experiment [3] the test system is SOD1^D90A motor neurons. Kind of experiment: Calcium ion image analysis after KCl and glutamate stimulation. Type of experiment: cell-based, human. Here is the method:
as §1
Cells were seeded on a Geltrex®-coated round glass slide having a diameter of 10 mm, and cultured in a neurobasal medium supplemented with RevitaCell® and compound E for 3 days. 1 μM calcium fluorescent probe Fluo-4 solution was prepared in a physiological buffer containing […], 5 mM KCl, 2 mM CaCl2, 2 mM MgCl2, 10 mM glucose and 10 mM HEPES, and the glass slide on which the cells were seeded was transferred into the 1 μM Fluo-4 solution and cultured at 37° C. for 4 min. The glass slide was transferred into a physiological buffer and cultured at 37° C. for 20 min. The glass slide with cells seeded thereon was transferred into a calcium imaging chamber for imaging under perfusion.
Images were taken under perfusion with a physiological buffer for 30 seconds, then under perfusion with 60 mM KCl for 1 min, and then under perfusion with a physiological buffer for 5 min. Next, images were taken under perfusion with 1 mM glutamate for 1 min, and then under perfusion with a physiological buffer for 5 min. Images were captured with a microscope (Nikon ECLIPSE Ti2-E) and analyzed using NIS-Elements AR software. […]

Experiment [4] deals with B6SJL-Tg (SOD1*G93A) 1Gur/J transgenic mice. Kind of experiment: ALS model mice: motor abilities, BBB score and survival. Type of experiment: in vivo. The source says:
The mice began to develop limb onsets in 80 to 90 days after birth, gradually lose ability to walk, and muscle weakness and atrophy started spreading to the upper parts of body. Most of their voluntary muscles became paralyzed and death after 110 to 120 days due to gradual loss of chewing ability and respiratory failure. The pathological characteristics include symptoms of amyotrophic lateral sclerosis such as muscular dystrophy, synaptic loss of motor neurons, degeneration and death of motor neurons, dismantling of the neuromuscular junction, etc.
Sixty days after birth, the ALS model mice (B6SJL-Tg (SOD1*G93A) 1Gur/J) were administered with gastrodin cycles once every 30 days as a single cycle, and 5 intraperitoneal injection of gastrodin was administered (with one day interval between every two intraperitoneal injections) at the first 10 days. No injection was administered during the subsequent 20 days. A total of two cycles of dosing may be performed until 120 days after birth.
The Example tested whether gastrodin improved the ALS symptoms of transgenic mice.
In this Example, beginning at 60 days after birth, the mice were administered with gastrodin by intraperitoneal injection at a dose of 50 mg/kg or 200 mg/kg for 5 times (with one day interval) every 30 days, until the mice degenerated severely to the extent that the hind lambs lost motor ability completely and until sacrificed. In this Example, motor abilities were tested, and survival time was recorded in days.

The test system of experiment [5] is SOD1^G85R ALS motor neurons. Put plainly: NF staining of SOD1^G85R ALS iPSC-differentiated motor neurons. It is filed as cell-based, human. The conditions noted are these: 10 μM gastrodin, 72 hrs, vs untreated. Here is the method: as §1
(§3) A 4-well culture slide with a glass cover placed thereon was coated with 1% Geltrex®, placed at 37° C. for at least 3 to 4 hrs, washed with phosphate buffered saline (PBS) once after removal of the Geltrex®, and soaked in a culture medium until use. The embryoid bodies were dissociated with enzymes or mechanical force into smaller pieces, seeded on the 4-well culture slide, and cultured for 3 days (optionally for a longer period). […]
as §2, with “software. […]” for “software.”

The test system of experiment [6] is sALS iPSC-differentiated motor neurons. Put plainly: NF staining of motor neurons differentiated from sporadic ALS iPSCs. Type of experiment: cell-based, human. The conditions noted are these: after treatment with gastrodin. Here is the method:
as §1, §3
as §2, with “software. […]” for “software.”

Experiment [7] deals with ALS motor neurons. Kind of experiment: ALS motor neurons, summary of axon and neurofilament findings. The note with it: 72 hrs after addition of gastrodin. Type of experiment: cell-based, human. Here is the method:
as §1

The mark [8] stands for this setting: 10 μM gastrodin, 72 hrs, NF staining, vs untreated.
Where [9] appears, read: intraperitoneal gastrodin from day 60, vs control.

As to `Nc1nc2ccc(OC(F)(F)F)cc2s1` [riluzole, reference compound], in experiment [1], the “efficacy on increasing number of nerve fibers, gastrodin compared with riluzole” value was “comparable to riluzole” and the “reduction of spherical nerve fiber beads, gastrodin compared with riluzole” value is reported as “by an extent more than riluzole”.
For `CC1=NN(c2ccccc2)C(=O)C1` [Edaravone, edaravone], in experiment [2], the “degeneration rate of motor ability” value was “can alleviate”.
In the case of `OCc1ccc(O[C@@H]2O[C@H](CO)[C@@H](O)[C@H](O)[C@H]2O)cc1` [gastrodin], in experiment [3] (KCl stimulation), the “response of ALS motor neurons to KCl” value was “promoted”. Moreover, in experiment [3] (treatment for 72 hrs, 1 mM glutamate stimulation), the “oversensitive response to glutamate (calcium ion flow)” value is recorded as “significantly decreased”. Also, in experiment [1] (setting [8]), the “amount of nerve fibers” value is given as “increased” and the “spherical nerve fiber beads” value is listed as “significantly decreased”. Besides, in experiment [1], the “efficacy on increasing number of nerve fibers, gastrodin compared with riluzole” value is reported as “comparable to riluzole” and the “reduction of spherical nerve fiber beads, gastrodin compared with riluzole” value is on record as “by an extent more than riluzole”. Moreover, in experiment [4] (50 mg/kg or 200 mg/kg intraperitoneal, 5 times every 30 days from day 60, vs control), the roller residence time entry is “obviously longer than that of the control; also recorded: increased”. In addition, in experiment [4] (after injection of gastrodin), the “loss of motor ability” value was “obviously delayed”, the mortality rate entry is on record as “reduced” and the “symptoms at an earlier stage” value is reported as “delayed”. For the same compound, the “suppression on loss of active ability, improvement” value in experiment [4] (compared to the control group) is “about 20 days”. Besides, in experiment [4] (setting [9]), the BBB scores result was “retarded the decrease”, the “extension of life / overall survival time” value is on record as 10 days and the “gripping strength of the hind limbs” value is given as “clearly increased”. The “amount of nerve fibers” value in experiment [5] is “significantly increase”. Further, in experiment [6], the “amount of nerve fibers” value was “increased” and the nerve fiber beads entry is listed as “decreased”. In experiment [7], the neural axons result is “Increased” and the neurofilament accumulation result is given as “reduced”.

Values taken from US11963969B2, “Method for prevention or treatment of amyotrophic lateral sclerosis by administering gastrodin” (BUDDHIST TZU CHI MEDICAL FOUNDATION, priority 2021, dated 2024).
